From patent US20180184655A1 (priority 2011, published 2018)

Tested on: Phytophthora infestans
Type: in vivo, Phytophthora infestans on Potato
Settings: Potato field trial, France 2010, 6 foliar sprays, fluopicolide 75 g a.s./ha, cyazofamid 60 g a.s./ha, adjuvant 150 ml/ha

SMILES: O=C(NCc1ncc(C(F)(F)F)cc1Cl)c1c(Cl)cccc1Cl [Fluopicolide, 2,6-dichloro-N-[3-chloro-5-(trifluoromethyl)-2-pyridylmethyl]benzamide]
- Efficacy (Abbott values) (29 days after last application): 18.3%
- Late blight severity on leaves (assessed 29 days after last application, mean values, untreated reference 100%): 81.7%
